Patent US10383859B2, “Benzo[d]thiazole derivative or salt thereof, and pharmaceutical composition including same” (Yuhan Corporation, priority 2016, dated 2019)

The compounds below were run on A549 cells (assay: Cell migration assay (24-well transwell, laminin)). Conditions: Homo sapiens, A549, 6 h, laminin 10 μg/mL in lower well, test compounds 0.39˜100 μM, migrated cells counted, read-out: Inhibitory activity against cell migration.
Format: cell-based, human
In short: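 Serum-free RPMI1640 transwell (8.0 μm pore) with laminin (10 μg/mL) in lower well; A549 cells (1×10^6 cells/mL) and compounds (0.39–100 μM) in both chambers, 6 h at 37 °C. Hematoxylin-stained cells on membrane underside counted at three fields (×20); IC50 by non-linear regression.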

Row | IC50 [µM] | SMILES
1 | < 1 | COc1ccc(CCN(c2nc3cccc(F)c3s2)C(C)c2ccc(C(=O)O)cc2)cc1 (stereo not drawn) [Example 52, 4-(1-{(7-fluorobenzo[d]thiazol-2-yl)[2-(4-methoxyphenyl)ethyl]amino}ethyl)benzoic acid]
2 | < 1 | COc1ccc(CCN(Cc2ccc(C(=O)O)cc2)c2nc3cc(Br)ccc3s2)cc1 [Example 91, 4-({(5-bromo-benzo[d]thiazol-2-yl)[2-(4-methoxyphenyl)ethyl]amino}methyl)benzoic acid]
3 | < 1 | COc1ccc(CCN(c2nc3cccc(F)c3s2)C(C)c2ccc(C(=O)O)cc2)cc1C (stereo not drawn) [Example 65, 4-(1-{(7-fluorobenzo[d]thiazol-2-yl)[2-(4-methoxy-3-methylphenyl)ethyl]amino}ethyl)benzoic acid]
4 | > 10 | COc1ccc(CCN(Cc2ccc(C(=O)O)cc2)c2nc3cccc(C(=O)O)c3s2)cc1 [Example 118, 2-{(4-carboxybenzyl)[2-(4-methoxyphenyl)ethyl]amino}benzo[d]thiazole-7-carboxylic acid]
5 | > 10 | COc1ccc(CCN(Cc2ccc(C(=O)O)cc2)c2nc3ccc(C)cc3s2)cc1 [Example 97, 4-({[2-(4-methoxyphenyl)ethyl](6-methyl-benzo[d]thiazol-2-yl)amino}methyl)benzoic acid]

Continued, compound first:

Row | SMILES | IC50 [µM]
6 | O=C(O)c1ccc(CN(CCc2cc(F)ccc2F)c2nc3cccc(F)c3s2)cc1 [Example 35, 4-({[2-(2,5-difluorophenyl)ethyl](7-fluorobenzo[d]thiazol-2-yl)amino}methyl)benzoic acid] | > 10
7 | COc1ccc(CCN(Cc2ccc(C(=O)O)cc2)c2nc3cccc(F)c3s2)cc1 [Example 1, 4-({(7-fluorobenzo[d]thiazol-2-yl)[2-(4-methoxyphenyl)ethyl]amino}methyl)benzoic acid] | < 1
8 | COc1ccc(CCN(c2nc3cc(F)cc(F)c3s2)C(C)c2ccc(C(=O)O)cc2)cc1 (stereo not drawn) [Example 99, 4-(1-{(5,7-difluorobenzo[d]thiazol-2-yl)[2-(4-methoxyphenyl)ethyl]amino}ethyl)benzoic acid] | > 10
9 | COc1ccc(CCN(c2nc3ccc(F)c(F)c3s2)C(C)c2ccc(C(=O)O)cc2)cc1 (stereo not drawn) [Example 104, 4-(1-{(6,7-difluorobenzo[d]thiazol-2-yl)[2-(4-methoxyphenyl)ethyl]amino}ethyl)benzoic acid] | > 10
10 | O=C(O)c1ccc(CN(CCc2ccc(OCC3CCC3)cc2)c2nc3cccc(F)c3s2)cc1 [Example 24, 4-{[[2-(4-cyclobutylmethoxyphenyl)ethyl]-(7-fluorobenzo[d]thiazol-2-yl)amino]methyl}benzoic acid] | 1 to 10
11 | CC(C)Oc1ccc(CCN(Cc2ccc(C(=O)O)cc2)c2nc3cccc(F)c3s2)cc1 [Example 11, 4-({(7-fluorobenzo[d]thiazol-2-yl)[2-(4-isopropoxyphenyl)ethyl]amino}methyl)benzoic acid] | 1 to 10
12 | COc1ccc(CCN(c2nc3c(F)cc(F)cc3s2)C(C)c2ccc(C(=O)O)cc2)cc1 (stereo not drawn) [Example 114, 4-(1-{(4,6-difluorobenzo[d]thiazol-2-yl)[2-(4-methoxyphenyl)ethyl]amino}ethyl)benzoic acid] | > 10
13 | CN(C)c1ccc(CCN(Cc2ccc(C(=O)O)cc2)c2nc3cccc(F)c3s2)cc1 [Example 21, 4-{[{2-[4-(dimethylamino)phenyl]ethyl}(7-fluorobenzo[d]thiazol-2-yl)amino]methyl}benzoic acid] | < 1
14 | COc1ccc(CCN(Cc2ccc(C(=O)O)cc2)c2nc3cccc(F)c3s2)c(Cl)c1 [Example 46, 4-({[2-(2-chloro-4-methoxyphenyl)ethyl](7-fluorobenzo[d]thiazol-2-yl)amino}methyl)benzoic acid] | > 10
15 | CCC(c1ccc(C(=O)O)cc1)N(CCc1ccc(OC)c(C)c1)c1nc2cccc(F)c2s1 (stereo not drawn) [Example 73, 4-(1-{(7-fluorobenzo[d]thiazol-2-yl)[2-(4-methoxy-3-methylphenyl)ethyl]amino}propyl)benzoic acid] | > 10
